In the supplement of paper PMC10307832:

Key:
Assay in all cases: relative viability (nuclei count vs DMSO), 5 days (fraction); higher = more cells survive
RERF-LC-KJ = tested on: RERF-LC-KJ
Outline: (§1)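 Relative viability was taken as the ratio of nuclei in treated wells to nuclei in vehicle wells. Lung cancer cell lines in 1536-well plates received compounds by pin tool one day after seeding, either one drug alone or a fixed anchor-drug dose plus five library-drug doses (not always all listed) in √10 steps. Nuclei were counted on 4× images after 5 days of treatment, and values are medians of duplicate plates.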

201T = tested on: 201T
Outline: as §1

NCI-H23 = tested on: NCI-H23
Outline: as §1

SK-LU-1 = tested on: SK-LU-1
Outline: as §1

NCI-H2023 = tested on: NCI-H2023
Outline: as §1

HCC-78 = tested on: HCC-78
Outline: as §1

NCI-H2405 = tested on: NCI-H2405
Outline: as §1

NCI-H1437 = tested on: NCI-H1437
Outline: as §1

LOU-NH91 = tested on: LOU-NH91
Outline: as §1

UMC-11 = tested on: UMC-11
Outline: as §1

LCLC-103H = tested on: LCLC-103H
Outline: as §1

SMILES: O=C(O)CCCCC(CCSCc1ccccc1)SCc1ccccc1 (stereo not drawn) [CPI-613] + CC(C)C[C@H](NC(=O)[C@H](Cc1ccccc1)NC(=O)c1cnccn1)B(O)O [Bortezomib] (partner 0.002 µM)
- relative viability (RERF-LC-KJ; first compound 50 µM): 1.08
- relative viability (RERF-LC-KJ; first compound 158.11 µM): 1.07
- relative viability (RERF-LC-KJ; first compound 500 µM): 0.958
- relative viability (201T; first compound 5 µM): 1.08
- relative viability (201T; first compound 15.81 µM): 1.03
- relative viability (201T; first compound 50 µM): 1.09
- relative viability (201T; first compound 158.11 µM): 0.995
- relative viability (201T; first compound 500 µM): 0.949
- relative viability (NCI-H23; first compound 5 µM): 0.958
- relative viability (NCI-H23; first compound 15.81 µM): 1.1
- relative viability (NCI-H23; first compound 50 µM): 0.895
- relative viability (NCI-H23; first compound 158.11 µM): 0.175
- relative viability (NCI-H23; first compound 500 µM): 0.0214
- relative viability (SK-LU-1; first compound 5 µM): 1.31
- relative viability (SK-LU-1; first compound 15.81 µM): 0.781
- relative viability (SK-LU-1; first compound 50 µM): 1.32
- relative viability (SK-LU-1; first compound 158.11 µM): 1.02
- relative viability (SK-LU-1; first compound 500 µM): 0.935
- relative viability (NCI-H2023; first compound 5 µM): 0.932
- relative viability (NCI-H2023; first compound 15.81 µM): 0.947
- relative viability (NCI-H2023; first compound 50 µM): 0.961
- relative viability (NCI-H2023; first compound 158.11 µM): 0.042
- relative viability (NCI-H2023; first compound 500 µM): 0.0072
- relative viability (HCC-78; first compound 5 µM): 0.5
- relative viability (HCC-78; first compound 15.81 µM): 0.397
- relative viability (HCC-78; first compound 50 µM): 0.553
- relative viability (HCC-78; first compound 158.11 µM): 0.445
- relative viability (HCC-78; first compound 500 µM): 0.602
- relative viability (NCI-H2405; first compound 5 µM): 0.986
- relative viability (NCI-H2405; first compound 15.81 µM): 0.961
- relative viability (NCI-H2405; first compound 50 µM): 0.891
- relative viability (NCI-H2405; first compound 158.11 µM): 0.913
- relative viability (NCI-H2405; first compound 500 µM): 0.852
- relative viability (NCI-H1437; first compound 5 µM): 0.479
- relative viability (NCI-H1437; first compound 15.81 µM): 0.397
- relative viability (NCI-H1437; first compound 50 µM): 0.493
- relative viability (NCI-H1437; first compound 158.11 µM): 0.115
- relative viability (NCI-H1437; first compound 500 µM): 0.0227
- relative viability (LOU-NH91; first compound 5 µM): 0.49
- relative viability (LOU-NH91; first compound 15.81 µM): 0.524
- relative viability (LOU-NH91; first compound 50 µM): 0.393
- relative viability (LOU-NH91; first compound 158.11 µM): 0.435
- relative viability (LOU-NH91; first compound 500 µM): 0.467
- relative viability (UMC-11; first compound 5 µM): 0.703
- relative viability (UMC-11; first compound 15.81 µM): 0.496
- relative viability (UMC-11; first compound 50 µM): 0.692
- relative viability (UMC-11; first compound 158.11 µM): 0.641
- relative viability (UMC-11; first compound 500 µM): 0.0673
- relative viability (LCLC-103H; first compound 5 µM): 1.08
- relative viability (LCLC-103H; first compound 15.81 µM): 0.94
- relative viability (LCLC-103H; first compound 50 µM): 0.966
- relative viability (LCLC-103H; first compound 158.11 µM): 0.985
- relative viability (LCLC-103H; first compound 500 µM): 1.06
